Reference: patent US20110009446A1, “OLIGOMER-GUANIDINE CLASS CONJUGATES” (Nektar Therapeutics, priority 2008, published 2011)
Structures can show the parent of a compound that is named as a salt.

Key:
[1] = system: visceral pain in mice (CD-1 male mice); test: Analgesic assay (acetic acid-induced writhing); type: in vivo
Method: An analgesic assay was used to determine whether a given compound can reduce and/or prevent visceral pain in mice. The assay utilized CD-1 male mice (5-8 mice per group), each mouse being approximately 0.015-0.030 kg on the study day. Mice were treated according to standard protocols. Mice were given a single “pretreatment” dose of a compound lacking covalent attachment of a water-soluble, non-peptidic oligomer, a corresponding version comprising the compound covalently attached to a water-soluble, non-peptidic oligomer, or control solution (IV, SC, IP or orally) thirty minutes prior to the administration of the acetic acid solution. The animal was given an IP injection of an irritant (acetic acid) that induces “writhing” which may include: contractions of the abdomen, twisting and turning of the trunk, arching of the back and the extension of the hindlimbs. Mice were given a single IP injection (0.1 mL/10 g bodyweight) of a 0.5% acetic acid solution. After the injection the animals were returned to their observation enclosure and their behavior was observed. Contractions were counted between 0 and 20 minutes after the injection. The animals were used once. Each tested article was dosed at 1, 3 and 10 mg/kg (n=5 animals/dose).

[2] = biological target: T1, noradrenalin transporters (Rattus norvegicus, UniProt Q9WTR4); test: Radioligand binding assay ([3H]-nisoxetine competition) in rat forebrain membranes; details: 1.0 nM [3H]-nisoxetine, 0-4° C., 4 hours, Cheng Prusoff correction
T1 construct: membranes prepared from rat forebrain which express noradrenalin transporters; from tissue; host or cells: rat forebrain membranes
Method: Competition binding experiments are conducted by incubating membranes with 1.0 nM of radioligand, [^3H]-nisoxetine, in the presence of variable concentrations (0.1 nM to 3 μM and 1 nM to 30 μM for parent and PEG conjugates, respectively) of test compounds. The reaction is carried out in 50 mM Tris-HCl (pH 7.4), containing 300 mM NaCl and 5 mM KCl at 0-4° C. for 4 hours. Following incubations, the membranes are washed, and the bound radioactivity is measured. Non-specific binding is measured in the presence of excess desipramine (1.0 μM) as the cold ligand; this value is subtracted from the total binding to yield the specific binding at each test compound concentration.
Ki is obtained using the Cheng Prusoff correction using experimental Kd values that are previously determined under these assay conditions.

[3] = 10 mg/kg, 5 animals, acetic acid writhing

T1 sequence (Q9WTR4 1-597): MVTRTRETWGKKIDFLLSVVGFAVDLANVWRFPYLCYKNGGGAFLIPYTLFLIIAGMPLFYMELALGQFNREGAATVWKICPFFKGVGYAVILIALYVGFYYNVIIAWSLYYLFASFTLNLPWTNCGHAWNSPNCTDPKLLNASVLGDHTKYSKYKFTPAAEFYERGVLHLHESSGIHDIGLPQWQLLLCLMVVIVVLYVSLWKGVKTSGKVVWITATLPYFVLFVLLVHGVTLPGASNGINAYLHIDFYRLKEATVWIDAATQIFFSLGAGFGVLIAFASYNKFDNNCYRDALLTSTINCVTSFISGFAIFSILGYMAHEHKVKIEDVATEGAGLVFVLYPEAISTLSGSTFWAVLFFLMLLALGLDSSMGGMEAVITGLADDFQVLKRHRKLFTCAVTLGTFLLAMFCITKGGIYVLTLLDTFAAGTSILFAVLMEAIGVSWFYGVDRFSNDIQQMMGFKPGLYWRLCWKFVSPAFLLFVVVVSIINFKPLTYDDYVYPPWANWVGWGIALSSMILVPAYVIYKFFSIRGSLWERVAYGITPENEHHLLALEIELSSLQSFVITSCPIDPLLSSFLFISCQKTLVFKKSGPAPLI

Row | Ki [2] | Compound | Mean (contractions/writhing counted) ([1]; 10 mg/kg single pretreatment dose 30 min before IP 0.5% acetic acid, contractions counted 0-20 min, CD-1 male mice) | No. of Responders [1, 3] | Responding Fraction [1, 3] | % Reduction in writhing ([1]; 10 mg/kg, CD-1 male mice, acetic acid writhing)
1 | – | N=C(N)N1CCc2ccccc2C1 [Debrisoquine] | 49.6 | 0 | 0.00 | 10.6%
2 | 594 nM | N=C(N)N1CCc2ccccc2C1 [Debrisoquine sulfate, debrisoquine sulfate] | – | – | – | –
